# According to patent publication US20080300135A1, “5-Alkyl-7-Amino-6-Heteroaryl-1,2,4-Triazolo[1,5-A]Pyrimidine Compounds and Their Use for Controlling Harmful Fungi” (BASF Aktiengesellschaft, priority 2005, published 2008):
# Assays:
# [1] = system: Pyricularia oryzae; type: cell-based; details: 125 ppm, day 7 after inoculation, absorption 405 nm, control = 100%
# [2] = system: Puccinia recondita; test: Curative activity against brown rust of wheat (greenhouse test); type: in vivo; details: 250 ppm, curative spray on wheat seedlings cv. Kanzler, 7 days; untreated control 90% infected
# Method: The active compounds were prepared separately as a stock solution with 25 mg of active compound which was made up to 10 ml with a mixture of acetone and/or DMSO and the emulsifier Uniperol® EL (wetting agent having emulsifying and dispersing action based on ethoxylated alkylphenols) in a solvent/emulsifier volume ratio of 99 to 1. The solution was then made up to 100 ml with water. This stock solution was diluted to the active compound concentration stated below using the solvent/emulsifier/water mixture described.
# Example No. 1—Curative activity against brown rust of wheat caused by Puccinia recondita
# Leaves of potted wheat seedlings of the cultivar “Kanzler” were inoculated with a spore suspension of brown rust (Puccinia recondita). The pots were then placed in a chamber with high atmospheric humidity (90 to 95%) and 20 to 22° C. for 24 hours. During this time, the spores germinated and the germ tubes penetrated into the leaf tissue. The next day, the infected plants were sprayed to runoff point with the above-described active compound solution at the active compound concentration stated below. After the spray coating had dried on, the test plants were cultivated in a greenhouse at temperatures between 20 and 22° C. and at 65 to 70% relative atmospheric humidity for 7 days. The extent of the rust fungus development on the leaves was then determined.
smiles,measurement,setting,value
"Cc1cc(C)n(-c2c(C)nc3ncnn3c2N2CCC(C)CC2)n1 [Compound C-1, 6-(3,5-Dimethylpyrazol-1-yl)-5-methyl-7-(4-methylpiperidin-1-yl)-[1,2,4]-triazolo[1,5-a]pyrimidin]",relative growth,[1],0%
same,infection,[2],10%
